Data from ChEMBL document CHEMBL1121483, “Thrombin inhibitors. 1. Ester derivatives of N alpha-(arylsulfonyl)-L-arginine” (J Med Chem, 1980).

Legend:
Prothrombin [1] = target: T1, Prothrombin (Bos taurus, UniProt P00735); assay: Concentration at which the clotting time was prolonged by twice the control was determined using topical bovine thrombin; format: functional; settings: read-out: I50
Prothrombin (Bos taurus) = Prothrombin (Bos taurus) (UniProt P00735); assay: Rate of hydrolysis by thrombin relative to TAME
[2] = target: Serine protease 1 (Homo sapiens) (UniProt P07477); assay: Rate of hydrolysis by trypsin relative to TAME
Chain of Serine protease 1 (Homo sapiens) (P07477 whole entry): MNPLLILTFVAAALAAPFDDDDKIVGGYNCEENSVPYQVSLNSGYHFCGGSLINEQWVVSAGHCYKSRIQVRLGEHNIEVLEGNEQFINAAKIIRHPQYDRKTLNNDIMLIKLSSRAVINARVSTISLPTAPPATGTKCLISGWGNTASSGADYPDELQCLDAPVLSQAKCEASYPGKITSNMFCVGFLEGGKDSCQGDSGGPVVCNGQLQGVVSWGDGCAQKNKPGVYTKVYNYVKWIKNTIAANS

Prothrombin [3] = target: T1, Prothrombin; assay: Concentration at which the clotting time was prolonged by twice the control was determined using commercial topical bovine thrombin.; format: functional

| SMILES | IC50 (Prothrombin [1]) | further results |
| --- | --- | --- |
| C#CCCOC(=O)C(CCCN=C(N)N)NS(=O)(=O)c1cccc2c(N(C)C)cccc12 (configuration not stated) | 4 µM | – |
| CCCOC(=O)C(CCCN=C(N)N)NS(=O)(=O)c1cccc2c(N(C)C)cccc12 (configuration not stated) | 2 µM | – |
| COC(=O)C(CCCNC(=N)N)NS(=O)(=O)c1cccc2ccccc12 (configuration not stated) | 520 µM | – |
| COC(=O)C(CCCNC(=N)N)NS(=O)(=O)c1ccc(OC)cc1 (configuration not stated) | 100 µM | – |
| C/C=C/COC(=O)C(CCCNC(=N)N)NS(=O)(=O)c1cccc2c(N(C)C)cccc12 (configuration not stated) | 2 µM | – |
| CCC(C)OC(=O)C(CCCNC(=N)N)NS(=O)(=O)c1cccc2c(N(C)C)cccc12 (configuration not stated) | 2000 µM | – |
| CN(C)c1cccc2c(S(=O)(=O)NC(CCCNC(=N)N)C(=O)OCC3CCCO3)cccc12 (configuration not stated) | 20 µM | – |
| COCCOC(=O)C(CCCNC(=N)N)NS(=O)(=O)c1cccc2c(N(C)C)cccc12 (configuration not stated) | 5 µM | – |
| CN(C)c1cccc2c(S(=O)(=O)NC(CCCN=C(N)N)C(=O)OCCCCl)cccc12 (configuration not stated) | – | Relative hydrolysis (Prothrombin (Bos taurus)): 0.084; Relative hydrolysis [2]: 0.5 |
| CCCCCOC(=O)C(CCCN=C(N)N)NS(=O)(=O)c1cccc2c(N(C)C)cccc12 (configuration not stated) | 49 µM | – |
| CC(C)OC(=O)C(CCCNC(=N)N)NS(=O)(=O)c1cccc2c(N(C)C)cccc12 (configuration not stated) | 30 µM | – |
| COC(=O)C(CCCN=C(N)N)NS(=O)(=O)c1ccc([N+](=O)[O-])cc1 (configuration not stated) | 2400 µM | – |
| COC(=O)C(CCCN=C(N)N)NS(=O)(=O)c1ccc2ccccc2c1 (configuration not stated) | 130 µM | – |
| COC(=O)C(CCCN=C(N)N)NS(=O)(=O)c1ccc(F)cc1 (configuration not stated) | 5200 µM | – |
| COC(=O)C(CCCN=C(N)N)NS(=O)(=O)c1cccc2cc(N(C)C)ccc12 (configuration not stated) | 100 µM | – |
| COC(=O)C(CCCN=C(N)N)NS(=O)(=O)c1cccc([N+](=O)[O-])c1 (configuration not stated) | 2900 µM | – |
| CCOC(=O)C(CCCNC(=N)N)NS(=O)(=O)c1cccc2c(N(C)C)cccc12 (configuration not stated) | 8 µM | – |
| COC(=O)C(CCCN=C(N)N)NS(=O)(=O)c1cccc2c(N(C)C)cccc12 (configuration not stated) | 20 µM | IC50 (Prothrombin [3]): 2000 µM |
| COC(=O)C(CCCNC(=N)N)NS(=O)(=O)c1ccc(Cl)cc1 (configuration not stated) | 2700 µM | – |
| CN(C)c1cccc2c(S(=O)(=O)NC(CCCN=C(N)N)C(=O)O)cccc12 (configuration not stated) | > 1000 µM | – |
| CC(C)COC(=O)C(CCCN=C(N)N)NS(=O)(=O)c1cccc2c(N(C)C)cccc12 (configuration not stated) | 10 µM | – |
| COC(=O)C(CCCN=C(N)N)NS(=O)(=O)c1ccc(N)cc1 (configuration not stated) | 4800 µM | – |
| CN(C)c1cccc2c(S(=O)(=O)NC(CCCNC(=N)N)C(=O)OCc3ccccc3)cccc12 (configuration not stated) | 2 µM | – |
| CN(C)c1cccc2c(S(=O)(=O)NC(CCCN=C(N)N)C(=O)OC3CCCCC3)cccc12 (configuration not stated) | 60 µM | – |
| CCC(COC(=O)C(CCCN=C(N)N)NS(=O)(=O)c1cccc2c(N(C)C)cccc12)[N+](=O)[O-] (configuration not stated) | 200 µM | – |
